# Patent US20150126964A1, “DRUG DELIVERY ACROSS THE BLOOD-BRAIN BARRIER USING MAGNETICALLY HEATABLE ENTITIES” (CORPORATION DE L'ECOLE POLYTECHNIQUE DE MONTREAL, priority 2012, published 2015)
# “And” between values parts separate entries of the source, which are not always exact repeats. Equal values may be shown once.
# Test system: blood-brain barrier
# Experiment: Histological examination of blood-brain barrier leakage of Evans blue dye after external heating
# Assay type: in vivo, mice
# Settings: one line per animal
# From the text: Staining of the blood-brain barrier is a traditional method for evaluating blood-brain barrier leakage. Evans Blue dye, an exogenous tracer, is used to assess the integrity of the blood-brain barrier following a hyperthermic disruption. The dye molecules are able to easily diffuse through the fenestrated endothelial cells of all capillaries except those of the brain due to a functional blood-brain barrier. However, once the blood-brain barrier is compromised, Evans blue enters the brain and it fluoresces with excitation peaks at 470 and 540 nm and an emission peak at 680 nm. Histological staining techniques can therefore reflect the extent of blood-brain barrier leakage by studying the intensity of Evans blue dye in the brain.
# Phase ii. The purpose of this part of the experiment was to examine the feasibility of hyperthermic disruption of the blood-brain barrier as well as its recovery period from thermal damage using Evans blue staining technique. Here, nine mice, each 6-8 weeks of age, were randomly divided into three identical groups. In contrast to the previous part, no holes were drilled into the exposed surface of the skull of these animals. In order to correlate temperature patterns with stains left from the Evans blue dye, the heating parameters for all groups were kept the same as was described in the first part of this experiment. […]
structure (smiles),measurement,setting,value
Cc1cc(-c2ccc(/N=N/c3ccc4c(S(=O)(=O)O)cc(S(=O)(=O)O)c(N)c4c3O)c(C)c2)ccc1/N=N/c1ccc2c(S(=O)(=O)O)cc(S(=O)(=O)O)c(N)c2c1O [Evans blue],Diameter of BBB leakage of Evans blue (mm),"Group I Hyperthermic Disruption, 30 min heating near Bregma, sacrificed one hour after dye",0 mm and 4.22 mm and 2.46 mm
same,Diameter of BBB leakage of Evans blue (mm),"Group II Recovery from Hyperthermia, dye injected 2 hours after 30 min thermal treatment",0 mm and 0.62 mm and 1.98 mm
